Where a name gives a salt, the structure may show the parent alone.
molecular target: T1, human LOXL2 (Homo sapiens, UniProt Q9Y4K0); experiment: Human LOXL2 amine oxidase activity assay (Amplex Red fluorescence); assay type: biochemical; settings: concentrated conditioned media from CHO cells stably expressing human LOXL2; 2 h at 37° C. preincubation; DAP substrate
T1 construct: expressed in transfected cells; 10-20x concentrated conditioned media used as the enzyme source
T1 sequence (Q9Y4K0 26-774): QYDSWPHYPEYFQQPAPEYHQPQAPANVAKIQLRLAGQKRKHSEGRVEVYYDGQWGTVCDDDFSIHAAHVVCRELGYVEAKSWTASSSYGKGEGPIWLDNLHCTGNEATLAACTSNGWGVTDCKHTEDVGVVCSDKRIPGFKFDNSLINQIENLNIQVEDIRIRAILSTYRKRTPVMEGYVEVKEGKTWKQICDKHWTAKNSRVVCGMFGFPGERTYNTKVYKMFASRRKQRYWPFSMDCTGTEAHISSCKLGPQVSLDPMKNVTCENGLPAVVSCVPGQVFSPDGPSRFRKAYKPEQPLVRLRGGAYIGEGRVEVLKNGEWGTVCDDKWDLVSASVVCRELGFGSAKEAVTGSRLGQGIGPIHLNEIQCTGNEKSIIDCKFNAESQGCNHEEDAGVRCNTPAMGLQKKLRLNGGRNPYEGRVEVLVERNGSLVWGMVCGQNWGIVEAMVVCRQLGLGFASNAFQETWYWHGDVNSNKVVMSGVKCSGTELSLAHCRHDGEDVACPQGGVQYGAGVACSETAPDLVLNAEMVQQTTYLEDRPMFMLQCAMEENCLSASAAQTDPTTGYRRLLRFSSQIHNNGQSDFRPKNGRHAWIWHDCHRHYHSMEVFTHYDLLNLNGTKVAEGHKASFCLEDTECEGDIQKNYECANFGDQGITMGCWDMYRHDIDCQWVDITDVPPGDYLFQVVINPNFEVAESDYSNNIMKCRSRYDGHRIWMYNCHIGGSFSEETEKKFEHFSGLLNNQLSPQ
Protocol: Example B-1: Human LOXL2 Amine Oxidase Activity Assay
LOXL2 amine oxidase activity is evaluated by measuring Amplex Red fluorescence using 10-20× concentrated conditioned media from CHO cells stably expressing human LOXL2.
To assay for amine oxidase activity, 10 μL of the concentrated conditioned media is incubated with 2 μL of test compound in DMSO and 73 μL Assay Buffer (50 mM Borate Buffer, pH8) for 2 h at 37° C. After the 2 h incubation, 5 ul of 10 mM 1,5-Diaminopentane (DAP) diluted in Assay Buffer and 10 μl of Amplex Red Mix (8.5 μl Assay Buffer+0.5 μl of 10 mM Amplex Red+1 μl of 500 U/ml Horseradish Peroxidase) are added and the plate mixed and immediately placed on the FlexStaion for fluorescence measurements. Fluorescence is read in kinetic mode every 2 min for 1 hour at excitation=544 and emission=590. The amine oxidase activity is calculated from the slope of the linear portion of the curve.

| Compound | IC50 |
| --- | --- |
| CN(Cc1cccc(C(=O)Nc2ccccc2)c1)c1cc(CN)ncn1 [Compound 1-45, 3-(((6-(Aminomethyl)pyrimidin-4-yl)(methyl)amino)methyl)-N-phenylbenzamide] | 100 to 1000 nM |
| NCc1cc(Oc2ccc(F)cc2)ncn1 [Compound 1-1, (6-(4-Fluorophenoxy)pyrimidin-4-yl)methanamine trifluoroacetate] | < 100 nM |
| NCc1cc(Oc2cccc3c2ccn3C2COC2)ncn1 [Compound 1-49, (6-((1-(Oxetan-3-yl)-1H-indol-4-yl)oxy)pyrimidin-4-yl)methanamine] | 100 to 1000 nM |
| NCc1cc(N2CCN(C(=O)c3ccccc3)CC2)ncn1 [Compound 1-104, (4-(6-(Aminomethyl)pyrimidin-4-yl)piperazin-1-yl)(phenyl)methanone] | > 1000 nM |
| NCc1cc(N2CC[C@@H](C(=O)Nc3ccccc3)C2)ncn1 [Compound 1-102, (R)-1-(6-(Aminomethyl)pyrimidin-4-yl)-N-phenylpyrrolidine-3-carboxamide] | 100 to 1000 nM |
| NCc1cc(Oc2cccc3c2CCC(=O)N3CC(=O)O)ncn1 [Compound 1-14, 2-(5-((6-(Aminomethyl)pyrimidin-4-yl)oxy)-2-oxo-3,4-dihydroquinolin-1(2H)-yl)acetic Acid Hydrochloride] | 100 to 1000 nM |
| CC(Oc1cc(CN)ncn1)c1cccc(C(=O)Nc2ccccc2)c1 (racemic) [Compound 1-95, Racemic-3-(1-((6-(aminomethyl)pyrimidin-4-yl)oxy)ethyl)-N-phenylbenzamide] | 100 to 1000 nM |
| NCc1cc(Oc2cccc3c2CCC(=O)N3)ncn1 [Compound 1-101, 5-((6-(Aminomethyl)pyrimidin-4-yl)oxy)-3,4-dihydroquinolin-2(1H)-one] | < 100 nM |
| NCc1cc(Oc2cccc(C(=O)NCc3ccccc3)c2)ncn1 [Compound 1-56, 3-((6-(Aminomethyl)pyrimidin-4-yl)oxy)-N-benzylbenzamide] | < 100 nM |
| NCc1cc(Oc2cccc3c2ccn3Cc2ccccc2)ncn1 [Compound 1-26, (6-((1-Benzyl-1H-indol-4-yl)oxy)pyrimidin-4-yl)methanamine] | < 100 nM |
| NCc1cc(Oc2cccc(C(=O)NCc3ccc4ccccc4n3)c2)ncn1 [Compound 1-63, 3-((6-(Aminomethyl)pyrimidin-4-yl)oxy)-N-(quinolin-2-ylmethyl)benzamide] | < 100 nM |
| NCc1cc(OCc2cccc(C(=O)Nc3cccc(C(F)(F)F)c3)c2)ncn1 [Compound 1-77, 3-(((6-(Aminomethyl)pyrimidin-4-yl)oxy)methyl)-N-(3-(trifluoromethyl)phenyl)benzamide] | < 100 nM |
| NCc1cc(OCc2cccc(C(=O)N3CCc4cccnc4C3)c2)ncn1 [Compound 1-88, (3-(((6-(Aminomethyl)pyrimidin-4-yl)oxy)methyl)phenyl)(5,6-dihydro-1,7-naphthyridin-7(8H)-yl)methanone] | < 100 nM |
| NCc1cc(OCc2cccc(C(=O)NCc3cc4cc(F)ccc4[nH]3)c2)ncn1 [Compound 1-85, 3-(((6-(Aminomethyl)pyrimidin-4-yl)oxy)methyl)-N-((5-fluoro-1H-indol-2-yl)methyl)benzamide] | < 100 nM |
| NCc1cc(Oc2cccc(C(=O)N3CCC(O)(C(F)(F)F)CC3)c2)ncn1 [Compound 1-74, (3-((6-(Aminomethyl)pyrimidin-4-yl)oxy)phenyl)(4-hydroxy-4-(trifluoromethyl)piperidin-1-yl)methanone] | < 100 nM |
| NCc1cc(-n2ccc3c(CO)cccc32)ncn1 [Compound 1-99, (1-(6-(Aminomethyl)pyrimidin-4-yl)-1H-indol-4-yl)methanol] | 100 to 1000 nM |

Further lines, results first:

| IC50 | Compound |
| --- | --- |
| < 100 nM | NCc1cc(Oc2cccc(C(=O)N3CCc4ccc(Cl)cc43)c2)ncn1 [Compound 1-50, (3-((6-(Aminomethyl)pyrimidin-4-yl)oxy)phenyl)(6-chloroindolin-1-yl)methanone] |
| < 100 nM | NCc1cc(Oc2cccc(C(=O)N3CCc4cccnc4C3)c2)ncn1 [Compound 1-69, (3-((6-(Aminomethyl)pyrimidin-4-yl)oxy)phenyl)(5,6-dihydro-1,7-naphthyridin-7(8H)-yl)methanone] |
| < 100 nM | NCc1cc(Oc2cccc3[nH]ccc23)ncn1 [Compound 1-19, (6-((1H-Indol-4-yl)oxy)pyrimidin-4-yl)methanamine] |
| < 100 nM | NCc1cc(Oc2cccc(C(=O)NCc3cc4ccccc4[nH]3)c2)ncn1 [Compound 1-53, N-((1H-Indol-2-yl)methyl)-3-((6-(aminomethyl)pyrimidin-4-yl)oxy)benzamide] |
| < 100 nM | NCc1cc(Oc2cccc(C(=O)NCc3cc4ccccc4s3)c2)ncn1 [Compound 1-6, 3-((6-(Aminomethyl)pyrimidin-4-yl)oxy)-N-(benzo[b]thiophen-2-ylmethyl)benzamide hydrochloride] |
| < 100 nM | NCc1cc(Oc2cccc3c2ccn3CC(=O)O)ncn1 [Compound 1-22, 2-(4-((6-(Aminomethyl)pyrimidin-4-yl)oxy)-1H-indol-1-yl)acetic acid] |
| < 100 nM | NCc1cc(OCc2cccc(C(=O)NCc3ccccc3)c2)ncn1 [Compound 1-41, 3-(((6-(Aminomethyl)pyrimidin-4-yl)oxy)methyl)-N-benzylbenzamide] |
| < 100 nM | NCc1cc(OCc2cccc(C(=O)NCCn3cnnn3)c2)ncn1 [Compound 1-46, N-(2-(1H-Tetrazol-1-yl)ethyl)-3-(((6-(aminomethyl)pyrimidin-4-yl)oxy)methyl)benzamide] |
| < 100 nM | NCc1cc(Oc2cccc3c2ccn3Cc2cccc(C(=O)O)c2)ncn1 [Compound 1-28, 3-((4-((6-(Aminomethyl)pyrimidin-4-yl)oxy)-1H-indol-1-yl)methyl)benzoic acid] |
| < 100 nM | COc1ccc(Cn2cc(C)c3c(Oc4cc(CN)ncn4)cccc32)cn1 [Compound 1-31, (6-((1-((6-Methoxypyridin-3-yl)methyl)-3-methyl-1H-indol-4-yl)oxy)pyrimidin-4-yl)methanamine] |
| < 100 nM | COc1ccc(Cn2ccc3cc(Oc4cc(CN)ncn4)ccc32)cn1 [Compound 1-29, (6-((1-((6-Methoxypyridin-3-yl)methyl)-1H-indol-5-yl)oxy)pyrimidin-4-yl)methanamine] |
| < 100 nM | NCc1cc(Oc2cccc(C(=O)NCc3sc4ccccc4c3Cl)c2)ncn1 [Compound 1-64, 3-((6-(Aminomethyl)pyrimidin-4-yl)oxy)-N-((3-chlorobenzo[b]thiophen-2-yl)methyl)benzamide] |
| < 100 nM | CS(=O)(=O)CCN1C(=O)CCc2c(Oc3cc(CN)ncn3)cccc21 [Compound 1-47, 5-((6-(Aminomethyl)pyrimidin-4-yl)oxy)-1-(2-(methylsulfonyl)ethyl)-3,4-dihydroquinolin-2(1H)-one] |
| < 100 nM | Cn1c(CNC(=O)c2cccc(COc3cc(CN)ncn3)c2)cc2ccccc21 [Compound 1-86, 3-(((6-(Aminomethyl)pyrimidin-4-yl)oxy)methyl)-N-((1-methyl-1H-indol-2-yl)methyl)benzamide] |
| < 100 nM | NCc1cc(OCc2cccc(C(=O)N3CCc4c([nH]c5ncccc45)C3)c2)ncn1 [Compound 1-90, (3-(((6-(Aminomethyl)pyrimidin-4-yl)oxy)methyl)phenyl)(5H-pyrrolo[2,3-b:5,4-c′]dipyridin-7(6H,8H,9H)-yl)methanone] |
| < 100 nM | NCc1cc(Oc2cccc(C(=O)N3CCc4cccnc43)c2)ncn1 [Compound 1-51, (3-((6-(Aminomethyl)pyrimidin-4-yl)oxy)phenyl)(2,3-dihydro-H-pyrrolo[2,3-b]pyridin-1-yl)methanone, hydrochloride] |
| < 100 nM | CN(C)C(=O)c1cccc(COc2cc(CN)ncn2)c1 [Compound 1-33, 3-(((6-(Aminomethyl)pyrimidin-4-yl)oxy)methyl)-N,N-dimethylbenzamide] |
| < 100 nM | COC(=O)Cn1ccc2c(Oc3cc(CN)ncn3)cccc21 [Compound 1-21, Methyl 2-(4-((6-(aminomethyl)pyrimidin-4-yl)oxy)-1H-indol-1-yl)acetate] |
| < 100 nM | NCc1cc(-n2ncc3c(CO)cccc32)ncn1 [Compound 1-61, (1-(6-(Aminomethyl)pyrimidin-4-yl)-1H-indazol-4-yl)methanol] |
| < 100 nM | NCc1cc(NCc2cccc(C(=O)NCc3sc4ccccc4c3Cl)c2)ncn1 [Compound 1-98, 3-(((6-(Aminomethyl)pyrimidin-4-yl)amino)methyl)-N-((3-chlorobenzo[b]thiophen-2-yl)methyl)benzamide] |

From US20180186755A1, “LYSYL OXIDASE-LIKE 2 INHIBITORS AND USES THEREOF” (PharmAkea, Inc., priority 2015, published 2018)
